Laboratory results published in ChEMBL document CHEMBL3044940, “Activities of essential oils from Asarum heterotropoides var. mandshuricum against five phytopathogens” (Crop Prot, 2010).
Converted amounts (≈) assume the structure as drawn. The source made the active and inactive calls. No cut-off for these calls is given here.

What was measured:
Assay type in all cases: functional, organism-based
Phytophthora cactorum [1] = experiment: Growth inhibition of Phytophthora cactorum after 48 hr
[2] = tested on: Colletotrichum gloeosporioides; experiment: Growth inhibition of Colletotrichum gloeosporioides after 48 hr
Phytophthora cactorum [3] = experiment: Induction of changes in hyphae ultrastructures in Phytophthora cactorum assessed as membranes obscuring at 0.052 ug/ml by transmission electron microscopy
Rhizoctonia solani = experiment: Growth inhibition of Rhizoctonia solani after 48 hr
Alternaria humicola = experiment: Growth inhibition of Alternaria humicola after 48 hr
Phytophthora cactorum [4] = experiment: Induction of changes in hyphae ultrastructures in Phytophthora cactorum assessed as mitochondria level changes at 0.052 ug/ml by transmission electron microscopy
Phytophthora cactorum [5] = experiment: Induction of changes in hyphae ultrastructures in Phytophthora cactorum assessed as endoplasmic reticulum structure changes at 0.052 ug/ml by transmission electron microscopy
Phytophthora cactorum [6] = experiment: Induction of changes in hyphae ultrastructures in Phytophthora cactorum assessed as cell wall thickening at 0.052 ug/ml by transmission electron microscopy
Phytophthora cactorum [7] = experiment: Induction of changes in hyphae ultrastructures in Phytophthora cactorum at 0.052 ug/ml by transmission electron microscopy
Fusarium solani = experiment: Growth inhibition of Fusarium solani after 48 hr
Phytophthora cactorum [8] = experiment: Induction of changes in hyphae ultrastructures in Phytophthora cactorum assessed as plasmalemma invagination at 0.052 ug/ml by transmission electron microscopy; conditions: Plasma

Row | SMILES | IC50 (Phytophthora cactorum [1]) | IC50 [2] | Activity (Phytophthora cactorum [3]) | IC50 (Rhizoctonia solani) | IC50 (Alternaria humicola) | Activity (Phytophthora cactorum [4]) | Activity (Phytophthora cactorum [5]) | Activity (Phytophthora cactorum [6]) | Activity (Phytophthora cactorum [7]) | growth inhibition (GI) (Fusarium solani) | Activity (Phytophthora cactorum [8])
1 | COCC(=O)N(c1c(C)cccc1C)C(C)C(=O)OC (configuration not stated) [METALAXYL] | 0.013 µg/mL (≈ 0.0465 µM) |  |  |  |  |  |  |  |  |  | 
2 | C=CCc1ccc(OC)c(OC)c1 [METHYLEUGENOL] | 0.052 µg/mL (≈ 0.292 µM) | 0.09 µg/mL (≈ 0.505 µM) | Active | 0.279 µg/mL (≈ 1.57 µM) | 0.144 µg/mL (≈ 0.808 µM) | Active | Active | Active | Active | inactive | Active
